The subject of this assay is IFNα-Induced STAT Phosphorylation. The assay is described as follows: IFNα-Induced STAT Phosphorylation in Human Whole Blood. It counts as cell-based. The note with it: Homo sapiens, 1 h compound incubation, 1000 U/mL recombinant human IFNα A/D for 15 min, pSTAT5 in CD3 positive population, read-out: LE Human WB IFNα-Induced Stat Phosph. (IC50). The text has this: IFNα-Induced STAT Phosphorylation in Human Whole Blood
The amount of pSTAT5 expression was quantitated by median fluorescence intensity after gating on the CD3 positive population.
In general, IC50 refers to the concentration needed to halve the response being measured. As to `[2H]C([2H])([2H])NC(=O)c1nnc(NC(=O)C2CC2)cc1Nc1nccc(-c2noc(COC)n2)c1OC` [Example 50, 6-cyclopropaneamido-4-({3-methoxy-4-[5-(methoxymethyl)-1,2,4-oxadiazol-3-yl]pyridin-2-yl}amino)-N—(^2H3)methylpyridazine-3-carboxamide], the IC50 came out at 40 nM.

Turning to `[2H]C([2H])([2H])NC(=O)c1nnc(NC(=O)C2CC2)cc1Nc1nccc(C#N)c1OC` [Example 51, 4-[(4-cyano-3-methoxypyridin-2-yl)amino]-6-cyclopropaneamido-N—(^2H3)methylpyridazine-3-carboxamide], the half-maximal inhibitory concentration (IC50) is greater than 10000 nM.

On to `[2H]C([2H])([2H])NC(=O)c1nnc(NC(=O)OC)cc1Nc1nccc(-c2noc(CN(C)S(C)(=O)=O)n2)c1OC` [Example 52, methyl N-{5-[(3-methoxy-4-{5-[(N-methylmethanesulfonamido)methyl]-1,2,4-oxadiazol-3-yl}pyridin-2-yl)amino]-6-[(^2H3)methylcarbamoyl]pyridazin-3-yl}carbamate], for which the 50% inhibitory concentration (IC50) amounted to 110 nM.

Regarding `[2H]C([2H])([2H])NC(=O)c1nnc(NC(=O)OC)cc1Nc1nccc(-c2noc(CN3CCOCC3)n2)c1OC` [Example 53, methyl N-{5-[(3-methoxy-4-{5-[(morpholin-4-yl)methyl]-1,2,4-oxadiazol-3-yl}pyridin-2-yl)amino]-6-[(^2H3)methylcarbamoyl]pyridazin-3-yl}carbamate], the IC50 turned out to be 500 nM.

On to `[2H]C([2H])([2H])NC(=O)c1nnc(NC(=O)C2CC2)cc1Nc1nccc(-c2noc(CN(C)S(C)(=O)=O)n2)c1OC` [Example 54, 6-cyclopropaneamido-4-[(3-methoxy-4-{5-[(N-methylmethanesulfonamido)methyl]-1,2,4-oxadiazol-3-yl}pyridin-2-yl)amino]-N—(^2H3)methylpyridazine-3-carboxamide], for which the IC50 came out at 10 nM.

As for `[2H]C([2H])([2H])NC(=O)c1nnc(NC(=O)C2CC2)cc1Nc1nccc(-c2noc(CN3CCOCC3)n2)c1OC` [Example 55, 6-cyclopropaneamido-4-[(3-methoxy-4-{5-[(morpholin-4-yl)methyl]-1,2,4-oxadiazol-3-yl}pyridin-2-yl)amino]-N—(^2H3)methylpyridazine-3-carboxamide], the IC50 was found to be 30 nM.

Turning to `[2H]C([2H])([2H])NC(=O)c1nnc(NC(=O)OC)cc1Nc1nccc(-c2noc(C)n2)c1OC` [Example 56, methyl N-(5-{[3-methoxy-4-(5-methyl-1,2,4-oxadiazol-3-yl)pyridin-2-yl]amino}-6-[(^2H3)methylcarbamoyl]pyridazin-3-yl)carbamate], the IC50 stood at 1340 nM.

Consider `[2H]C([2H])([2H])NC(=O)c1nnc(NC(=O)C2CC2)cc1Nc1nccc(-c2noc([C@H](C)O)n2)c1OC` [Example 57, 6-cyclopropaneamido-4-[(4-{5-[(1S)-1-hydroxyethyl]-1,2,4-oxadiazol-3-yl}-3-methoxypyridin-2-yl)amino]-N—(^2H3)methylpyridazine-3-carboxamide], for which the IC50 is 60 nM.

`[2H]C([2H])([2H])NC(=O)c1nnc(NC(=O)C2CC2)cc1Nc1nccc(-c2noc(CN(C)C)n2)c1OC` [Example 58, 6-cyclopropaneamido-4-[(4-{5-[(dimethylamino)methyl]-1,2,4-oxadiazol-3-yl}-3-methoxypyridin-2-yl)amino]-N—(^2H3)methylpyridazine-3-carboxamide]: the concentration for half-maximal inhibition (IC50) was 60 nM.

In the case of `[2H]C([2H])([2H])NC(=O)c1nnc(NC(=O)C2CC2)cc1Nc1nccc(-c2noc(CC#N)n2)c1OC` [Example 60, 4-({4-[5-(cyanomethyl)-1,2,4-oxadiazol-3-yl]-3-methoxypyridin-2-yl}amino)-6-cyclopropaneamido-N—(^2H3)methylpyridazine-3-carboxamide], the IC50 was 130 nM.

Turning to `[2H]C([2H])([2H])NC(=O)c1nnc(Nc2cc(C)ccn2)cc1Nc1nccc(-c2noc(CN(C)S(C)(=O)=O)n2)c1OC` [Example 61, 4-[(3-methoxy-4-{5-[(N-methylmethanesulfonamido)methyl]-1,2,4-oxadiazol-3-yl}pyridin-2-yl)amino]-N—(^2H3)methyl-6-[(4-methylpyridin-2-yl)amino]pyridazine-3-carboxamide], the IC50 worked out at 300 nM.

For the compound `[2H]C([2H])([2H])NC(=O)c1nnc(Nc2cc(C)ccn2)cc1Nc1nccc(-c2noc(COC)n2)c1OC` [Example 62, 4-({3-methoxy-4-[5-(methoxymethyl)-1,2,4-oxadiazol-3-yl]pyridin-2-yl}amino)-N—(^2H3)methyl-6-[(4-methylpyridin-2-yl)amino]pyridazine-3-carboxamide], the half-inhibitory concentration (IC50) is 1130 nM.

`[2H]C([2H])([2H])NC(=O)c1nnc(NC(=O)OC)cc1Nc1nccc(-c2noc(CN3CCCCS3(=O)=O)n2)c1OC` [Example 64, methyl N-{5-[(4-{5-[(1,1-dioxo-1λ^6,2-thiazinan-2-yl)methyl]-1,2,4-oxadiazol-3-yl}-3-methoxypyridin-2-yl)amino]-6-[(^2H3)methylcarbamoyl]pyridazin-3-yl}carbamate]: the IC50 is 90 nM.

Turning to `[2H]C([2H])([2H])NC(=O)c1nnc(NC(=O)CC)cc1Nc1nccc(-c2noc(CN3CCOCC3)n2)c1OC` [Example 65, 4-[(3-methoxy-4-{5-[(morpholin-4-yl)methyl]-1,2,4-oxadiazol-3-yl}pyridin-2-yl)amino]-N—(^2H3)methyl-6-propanamidopyridazine-3-carboxamide], the concentration for half-maximal inhibition (IC50) turned out to be 120 nM.

Regarding `[2H]C([2H])([2H])NC(=O)c1nnc(NC(=O)CC)cc1Nc1nccc(-c2noc(COC)n2)c1OC` [Example 66, 4-({3-methoxy-4-[5-(methoxymethyl)-1,2,4-oxadiazol-3-yl]pyridin-2-yl}amino)-N—(^2H3)methyl-6-propanamidopyridazine-3-carboxamide], the IC50 came to 210 nM.

With `[2H]C([2H])([2H])NC(=O)c1nnc(NC(=O)CC2CC2)cc1Nc1nccc(-c2noc(CN(C)S(C)(=O)=O)n2)c1OC` [Example 67, 6-(2-cyclopropylacetamido)-4-[(3-methoxy-4-{5-[(N-methylmethanesulfonamido)methyl]-1,2,4-oxadiazol-3-yl}pyridin-2-yl)amino]-N—(^2H3)methylpyridazine-3-carboxamide], the half-maximal inhibitory concentration (IC50) was 70 nM.

Regarding `[2H]C([2H])([2H])NC(=O)c1nnc(NC(=O)CC(C)C)cc1Nc1nccc(-c2noc(COC)n2)c1OC` [Example 68, 4-({3-methoxy-4-[5-(methoxymethyl)-1,2,4-oxadiazol-3-yl]pyridin-2-yl}amino)-N—(^2H3)methyl-6-(3-methylbutanamido)pyridazine-3-carboxamide], the concentration for half-maximal inhibition (IC50) is 1420 nM.

With `[2H]C([2H])([2H])NC(=O)c1nnc(NC(=O)CC(C)C)cc1Nc1nccc(-c2noc(CN3CCOCC3)n2)c1OC` [Example 69, 4-[(3-methoxy-4-{5-[(morpholin-4-yl)methyl]-1,2,4-oxadiazol-3-yl}pyridin-2-yl)amino]-N—(^2H3)methyl-6-(3-methylbutanamido)pyridazine-3-carboxamide], the IC50 is 700 nM.

For `[2H]C([2H])([2H])NC(=O)c1nnc(NC(=O)CC(C)C)cc1Nc1nccc(-c2noc(CN(C)S(C)(=O)=O)n2)c1OC` [Example 70, 4-[(3-methoxy-4-{5-[(N-methylmethanesulfonamido)methyl]-1,2,4-oxadiazol-3-yl}pyridin-2-yl)amino]-N—(^2H3)methyl-6-(3-methylbutanamido)pyridazine-3-carboxamide], the half-maximal inhibitory concentration (IC50) amounted to 240 nM.

For the compound `[2H]C([2H])([2H])NC(=O)c1nnc(NC(=O)CC(C)C)cc1Nc1nccc(-c2noc(CN3CCOC3=O)n2)c1OC` [Example 71, 4-[(3-methoxy-4-{5-[(2-oxo-1,3-oxazolidin-3-yl)methyl]-1,2,4-oxadiazol-3-yl}pyridin-2-yl)amino]-N—(^2H3)methyl-6-(3-methylbutanamido)pyridazine-3-carboxamide], the IC50 is 420 nM.

In the case of `[2H]C([2H])([2H])NC(=O)c1nnc(NC(=O)CC2COC2)cc1Nc1nccc(-c2noc(COC)n2)c1OC` [Example 76, 4-({3-methoxy-4-[5-(methoxymethyl)-1,2,4-oxadiazol-3-yl]pyridin-2-yl}amino)-N—(^2H3)methyl-6-[2-(oxetan-3-yl)acetamido]pyridazine-3-carboxamide], the concentration for half-maximal inhibition (IC50) was found to be 180 nM.

As to `[2H]C([2H])([2H])NC(=O)c1nnc(Nc2cc(C(C)(C)O)ccn2)cc1Nc1nccc(-c2noc(C)n2)c1OC` [Example 80, 6-{[4-(2-hydroxypropan-2-yl)pyridin-2-yl]amino}-4-{[3-methoxy-4-(5-methyl-1,2,4-oxadiazol-3-yl)pyridin-2-yl]amino}-N—(^2H3)methylpyridazine-3-carboxamide], the IC50 was determined as 600 nM.

As for `[2H]C([2H])([2H])NC(=O)c1nnc(NC(=O)CC)cc1Nc1nccc(-c2noc(C)n2)c1OC` [Example 81, 4-{[3-methoxy-4-(5-methyl-1,2,4-oxadiazol-3-yl)pyridin-2-yl]amino}-N—(^2H3)methyl-6-propanamidopyridazine-3-carboxamide], the half-maximal inhibitory concentration (IC50) turned out to be 220 nM.

`[2H]C([2H])([2H])NC(=O)c1nnc(Nc2ccc(C(C)(C)O)cn2)cc1Nc1nccc(-c2noc(C)n2)c1OC` [Example 82, 6-{[5-(2-hydroxypropan-2-yl)pyridin-2-yl]amino}-4-{[3-methoxy-4-(5-methyl-1,2,4-oxadiazol-3-yl)pyridin-2-yl]amino}-N—(^2H3)methylpyridazine-3-carboxamide]: the IC50 was 30 nM.

With `[2H]C([2H])([2H])NC(=O)c1cnc(NC(=O)C2CC2)cc1Nc1nccc(-c2ccccn2)c1OC` [Example 84, 6-(Cyclopropanecarboxamido)-4-((3′-methoxy-[2,4′-bipyridin]-2′-yl)amino)-N-(methyl-d3)nicotinamide], the IC50 stood at 80 nM.

As for `[2H]C([2H])([2H])NC(=O)c1cnc(NC(=O)C2CC2)cc1Nc1nccc(-c2ccc(NC(=O)C3CC3)cn2)c1OC` [Example 85, 6-(Cyclopropanecarboxamido)-4-((5-(cyclopropanecarboxamido)-3′-methoxy-[2,4′-bipyridin]-2′-yl)amino)-N-(methyl-d3)nicotinamide], the IC50 is 150 nM.

The values above are taken from US11597721B2, “Heterocyclic compounds comprising pyridine useful as modulators of IL-12, IL-23 and/or IFNα responses” (BRISTOL-MYERS SQUIBB COMPANY, priority 2018, dated 2023).
